Experimental data from PMC6264262, “Synthesis and Antimalarial Activity of Novel Dihydro-Artemisinin Derivatives” (Molecules, 2011).

Target: T1, P. falciparum falcipain-2 (Plasmodium falciparum, UniProt Q8I6U4)
T1 construct: Recombinant falcipain-2 (30 nM) was incubated for 30 min at room temperature
T1 sequence (Q8I6U4 244-484): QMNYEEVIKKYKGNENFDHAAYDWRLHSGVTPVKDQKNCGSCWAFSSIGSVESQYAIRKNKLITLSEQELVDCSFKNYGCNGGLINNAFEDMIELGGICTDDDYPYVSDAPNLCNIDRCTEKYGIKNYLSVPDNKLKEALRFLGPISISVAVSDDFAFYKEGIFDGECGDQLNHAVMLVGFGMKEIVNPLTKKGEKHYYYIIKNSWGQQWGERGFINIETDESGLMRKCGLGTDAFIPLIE
Assay: in vitro falcipain-2 inhibition assay (fluorogenic substrate Z-Leu-Arg-AMC)
Type: biochemical
Details: recombinant falcipain-2 30 nM, pH 5.5, substrate Z-Leu-Arg-AMC 25 μM; for Inhibition rate: at 10 μM concentration level; for IC50: 30 min preincubation, determined if inhibition rate larger than 20% at 10 μM
Method: The in vitro P. falciparum falcipain-2 inhibition assay against was carried out according to a previously reported method by taking N-(L-3-trans-carboxyoxiran-2-carbonyl)-L-leucyl)-amido(4-guanido)butane (E-64) as a positive control and DMSO as a negative control. Falcipain-2 could hydrolyse the fluorogenic substrate benzyloxycarbonyl-Leu-Arg-7-amino-4-methylcoumarin (Z-Leu-Arg-AMC) to produce coumarin and its activity could be evaluated by monitoring the fluorescence of the coumarin.
Recombinant falcipain-2 (30 nM) was incubated for 30 min at room temperature in 100 mM NaOAc, pH 5.5, 10 mM dithiothreitol (DTT), with different concentrations of 10a-l and 12a-f. These solutions were prepared from stock in DMSO (maximum concentration of DMSO in the assay was 1%). After incubation, the substrate Z-Leu-Arg-AMC with the same buffer was added to a final concentration of 25 μM. The increase in fluorescence (excitation at 355 nm and emission at 460 nm) was monitored for 30 min at room temperature with an automated microplate spectrofluorimeter (Biotek, Synergy 2). IC50 values were determined from plots of percent activity over compound concentration using the GraphPad Prism software if inhibition rates were larger than 20% at 10 μM concentration level.

| SMILES | Inhibition rate [%] | IC50 [nM] |
| --- | --- | --- |
| CC(C)C[C@H](NC(=O)[C@H]1O[C@@H]1C(=O)O)C(=O)NCCCCN=C(N)N (relative stereo) [Compound E-64, reference compound] | 100.0 | 19.7 |
| CC1CCC2C(C)[C@@H](Oc3ccc(C=NNC(=S)Nc4ccccc4F)cc3)OC3OC4(C)CCC1C32OO4 (stereo partly drawn) [Compound 10a, 4-[(10S)-Dihydroartemisinin-10-oxy]benzaldehyde N^4-(2-fluorophenyl)thiosemicarbazone] | 72.48 | 2510 |
| CC1CCC2C(C)[C@@H](Oc3ccc(C=NNC(=S)Nc4ccc(F)cc4)cc3)OC3OC4(C)CCC1C32OO4 (stereo partly drawn) [Compound 10b, 4-[(10S)-Dihydroartemisinin-10-oxy]benzaldehyde N^4-(4-fluorophenyl)thiosemicarbazone] | 59.76 | 2170 |
| CCOc1ccc(NC(=S)NN=Cc2ccc(O[C@H]3OC4OC5(C)CCC6C(C)CCC(C3C)C46OO5)cc2)cc1 (stereo partly drawn) [Compound 10c, 4-[(10S)-Dihydroartemisinin-10-oxy]benzaldehyde N^4-(4-ethoxyphenyl)thiosemicarbazone] | 87.42 | 520 |
| Cc1ccc(C)c(NC(=S)NN=Cc2ccc(O[C@H]3OC4OC5(C)CCC6C(C)CCC(C3C)C46OO5)cc2)c1 (stereo partly drawn) [Compound 10d, 4-[(10S)-Dihydroartemisinin-10-oxy]benzaldehyde N^4-(2,5-dimethylphenyl)thiosemicarbazone] | 75.28 | 550 |
| Cc1cc(C)cc(NC(=S)NN=Cc2ccc(O[C@H]3O[C@@H]4O[C@@]5(C)CC[C@H]6[C@H](C)CC[C@@H]([C@H]3C)[C@@]46OO5)cc2)c1 [Compound 10e, 4-[(10S)-Dihydroartemisinin-10-oxy]benzaldehyde N^4-(3,5-dimethylphenyl)thiosemicarbazone] | 74.06 | 1350 |
| Cc1c(Cl)cccc1NC(=S)NN=Cc1ccc(O[C@H]2OC3OC4(C)CCC5C(C)CCC(C2C)C35OO4)cc1 (stereo partly drawn) [Compound 10f, 4-[(10S)-Dihydroartemisinin-10-oxy]benzaldehyde N^4-(3-chloro-2-methylphenyl)thiosemicarbazone] | 75.62 | 984 |
| CC1CCC2C(C)[C@@H](Oc3ccc(C=NNC(=O)Nc4ccccc4F)cc3)OC3OC4(C)CCC1C32OO4 (stereo partly drawn) [Compound 10g, 4-[(10S)-Dihydroartemisinin-10-oxy]benzaldehyde N^4-(2-fluorophenyl)semicarbazone] | 76.74 | 2250 |
| CC1CCC2C(C)[C@@H](Oc3ccc(C=NNC(=O)Nc4ccc(F)cc4)cc3)OC3OC4(C)CCC1C32OO4 (stereo partly drawn) [Compound 10h, 4-[(10S)-Dihydroartemisinin-10-oxy]benzaldehyde N^4-(4-fluorophenyl)semicarbazone] | 84.60 | 1020 |
| CCOc1ccc(NC(=O)NN=Cc2ccc(O[C@H]3OC4OC5(C)CCC6C(C)CCC(C3C)C46OO5)cc2)cc1 (stereo partly drawn) [Compound 10i, 4-[(10S)-Dihydroartemisinin-10-oxy]benzaldehyde N^4-(4-ethoxyphenyl)semicarbazone] | 72.70 | 700 |
| Cc1ccc(C)c(NC(=O)NN=Cc2ccc(O[C@H]3OC4OC5(C)CCC6C(C)CCC(C3C)C46OO5)cc2)c1 (stereo partly drawn) [Compound 10j, 4-[(10S)-Dihydroartemisinin-10-oxy]benzaldehyde N^4-(2,5-dimethylphenyl)semicarbazone] | 59.01 | 2280 |
| Cc1cc(C)cc(NC(=O)NN=Cc2ccc(O[C@H]3O[C@@H]4O[C@@]5(C)CC[C@H]6[C@H](C)CC[C@@H]([C@H]3C)[C@@]46OO5)cc2)c1 [Compound 10k, 4-[(10S)-Dihydroartemisinin-10-oxy]benzaldehyde N^4-(3,5-dimethylphenyl)semicarbazone] | 87.88 | 1030 |
| Cc1c(Cl)cccc1NC(=O)NN=Cc1ccc(O[C@H]2OC3OC4(C)CCC5C(C)CCC(C2C)C35OO4)cc1 (stereo partly drawn) [Compound 10l, 4-[(10S)-Dihydroartemisinin-10-oxy]benzaldehyde N^4-(3-chloro-2-methylphenyl)semicarbazone] | 81.82 | 2540 |
| CC1CCC2C(C)[C@H](OC(=O)c3ccc(C=NNC(=O)Nc4ccccc4F)cc3)OC3OC4(C)CCC1C32OO4 (stereo partly drawn) [Compound 12a, 4-[(10S)-Dihydroartemisinin-10-oxycarbonyl]benzaldehyde N^4-(2-fluorophenyl)semicarbazone] | 79.32 | 470 |
| CC1CCC2C(C)[C@H](OC(=O)c3ccc(C=NNC(=O)Nc4ccc(F)cc4)cc3)OC3OC4(C)CCC1C32OO4 (stereo partly drawn) [Compound 12b, 4-[(10S)-Dihydroartemisinin-10-oxycarbonyl]benzaldehyde N^4-(4-fluorophenyl)semicarbazone] | 69.25 | 650 |
| CCOc1ccc(NC(=O)NN=Cc2ccc(C(=O)O[C@@H]3OC4OC5(C)CCC6C(C)CCC(C3C)C46OO5)cc2)cc1 (stereo partly drawn) [Compound 12c, 4-[(10S)-Dihydroartemisinin-10-oxycarbonyl]benzaldehyde N^4-(4-ethoxyphenyl)semicarbazone] | 75.89 | 290 |
| Cc1ccc(C)c(NC(=O)NN=Cc2ccc(C(=O)O[C@@H]3OC4OC5(C)CCC6C(C)CCC(C3C)C46OO5)cc2)c1 (stereo partly drawn) [Compound 12d, 4-[(10S)-Dihydroartemisinin-10-oxycarbonyl]benzaldehyde N^4-(2,5-dimethylphenyl)semicarbazone] | 76.61 | 2960 |
| Cc1cc(C)cc(NC(=O)NN=Cc2ccc(C(=O)O[C@@H]3O[C@@H]4O[C@@]5(C)CC[C@H]6[C@H](C)CC[C@@H]([C@H]3C)[C@@]46OO5)cc2)c1 [Compound 12e, 4-[(10S)-Dihydroartemisinin-10-oxycarbonyl]benzaldehyde N^4-(3,5-dimethylphenyl)semicarbazone] | 71.62 | 570 |
| Cc1c(Cl)cccc1NC(=O)NN=Cc1ccc(C(=O)O[C@@H]2OC3OC4(C)CCC5C(C)CCC(C2C)C35OO4)cc1 (stereo partly drawn) [Compound 12f, 4-[(10S)-Dihydroartemisinin-10-oxycarbonyl]benzaldehyde N^4-(3-chloro-2-methylphenyl)semicarbaz-one] | 74.67 | 10600 |
